# Target: Trypsin (Homo sapiens, UniProt P07477+P07478+P35030)
# Assay: Inhibition of trypsin (unknown origin) using Nalpha-benzoyl-D/L-arginine-4-nitroanilide hydrochloride as substrate preincubated for 5 mins followed by substrate addition and measured upto 30 mins by absorbance based assay
# Assay type: protein assay
row,IC50 [nM],SMILES
1,100,N=C(N)NCCC[C@@H](C=O)NC(=O)[C@H](CCc1ccc(O)cc1)NC(=O)[C@H](O)Cc1ccc(O)cc1
2,> 200000,N=C(N)NCCC[C@@H](CO)NC(=O)[C@H](CCc1ccc(O)cc1)NC(=O)[C@H](O)Cc1ccc(O)cc1
3,600,CC(=O)N[C@@H](CC(C)C)C(=O)N[C@@H](CC(C)C)C(=O)N[C@H](C=O)CCCNC(=N)N [LEUPEPTIN]

# Source: ChEMBL document CHEMBL5137092, “Nostosin G and Spiroidesin B from the Cyanobacterium Dolichospermum sp. NIES-1697” (J Nat Prod, 2022)
